A word on the inhibition: it is the share of the control response that was lost under treatment.

These results are taken from patent US20250034212A1, “PEPTIDE” (PEPTIDREAM INC., priority 2021, published 2025).

For one assay, the target named is T1, recombinant human TGF-β1 (Homo sapiens, UniProt P01137).
T1 construct: purchased R&D systems
In words: SBE reporter assay in SBE reporter-HEK293 cells, TGF-β1 stimulation. The assay is classed as cell-based. To be noted: TGF-β1 0.13 nM, 18 hours; for inhibition at 62 pM: peptide 0.062 nM; for inhibition at 0.000185 µM: peptide 0.185 nM; for inhibition at 0.00056 µM: peptide 0.56 nM; for inhibition at 0.0017 µM: peptide 1.7 nM; for inhibition at 0.005 µM: peptide 5.0 nM; for inhibition at 0.015 µM: peptide 15.0 nM; for inhibition at 75 pM: peptide 0.075 nM; for inhibition at 0.00075 µM: peptide 0.75 nM; for inhibition at 0.0075 µM: peptide 7.5 nM; for inhibition at 0.075 µM: peptide 75.0 nM. The source says: The inhibitory activity of the peptide can be calculated without limitation while the maximum signal induced by TGF-β is set to 0% inhibition and no stimulation is set to 100% inhibition. When the peptide is used at an appropriate concentration, for example, at the optimal concentration, the inhibitory activity is not limited but the inhibition is 5% or more, 10% or more, 20% or more, 30% or more, 40% or more, 50% or more, 60% or more, 70% or more, 80% or more, or 90% or more.
In this Example, the TGF-β1 inhibitory activity of the peptide of the present invention consisting of the amino acid sequence set forth in SEQ ID NOs: 2-33 synthesized in Examples 1 to 5 and 7 was evaluated by an SBE reporter assay using the SBE reporter-HEK293 cell system (BP Bioscience) as follows.
SBE reporter-HEK293 cells were cultured in E-MEM (Wako) containing 10% FBS (Sigma). The cells were detached using Accutase (Innovative Cell Technologies), suspended in E-MEM containing 0.5% FBS, seeded onto a 96-well plate(s) at a concentration of 45,000 cells per well, and cultured overnight. The next day, the peptide was added and allowed to stand for 20 min, and recombinant human TGF-β1 (R&D systems) or recombinant human TGF-β2 (R&D systems) was then added at 0.13 nM and cultured for 18 hours.
Thereafter, luciferase assay ONE-Glo reagent was added to each well and the plate was shaken for 5 min. A SpectraMax Paradigm multimode microplate reader (Molecular Devices) was then used for signal detection. The obtained signals were analyzed by GraphPad Prism. The inhibitory activity of the peptide was calculated while the maximum signal induced by TGF-β was set to 0% inhibition and no stimulation was set to 100% inhibition.

For assay [1], the target named is recombinant human TGF-β1 (R&D systems) (human, UniProt P01137 279-390). In words: cell-based or functional assay.

Starred links: 1 amine or outer side, 2 acyl side, 3 side chain; linkers in the order of their positions; H or OH if unused. Positions of bridges follow the written chain, without caps; N, C: chain ends. Non-standard residues stand in square brackets, D forms with d. Residues, ends and D or L forms follow the SMILES beside them. Groups on a side chain read outwards from the residue. No end group written: not given here. *: point of attachment. Meglumine = CN(C[C@H](O)[C@@H](O)[C@H](O)[C@H](O)CO)*; Trp(7-aza) = N[C@@H](Cc1c[nH]c2ncccc12)C(=O)O; Piperazinyl(4-CH2COOH) = O=C(O)CN1CCN(*)CC1; 1Nal = N[C@@H](Cc1cccc2ccccc12)C(=O)O; Gly(NCH2CH2Ph) = O=C(O)CNCCc1ccccc1; 4Pal = N[C@@H](Cc1ccncc1)C(=O)O; CO = O=C([*:1])[*:2]

Chain of recombinant human TGF-β1 (R&D systems) (P01137 279-390 limits assumed): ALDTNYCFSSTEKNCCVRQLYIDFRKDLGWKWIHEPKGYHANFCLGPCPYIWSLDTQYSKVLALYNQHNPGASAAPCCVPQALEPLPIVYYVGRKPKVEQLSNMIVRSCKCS
T1 sequence (P01137 279-390 limits assumed): as above

Take `CC(C)[C@@H]1NC(=O)CN(CCc2ccccc2)C(=O)[C@H](CCC(=O)O)NC(=O)[C@H](CC(=O)O)NC(=O)[C@H](Cc2ccncc2)NC(=O)[C@H](C(C)C)NC(=O)[C@H](CC(N)=O)NC(=O)[C@H](C(C)C)NC(=O)[C@H](C(C)C)NC(=O)[C@H](Cc2cccc3ccccc23)NC(=O)[C@H](Cc2ccccc2)NC(=O)CSC[C@@H](C(=O)NCC(N)=O)NC(=O)[C@H](CCCCNC(=O)N2CCN(CC(=O)O)CC2)NC(=O)[C@H](Cc2c[nH]cn2)NC(=O)[C@H](Cc2ccc(O)cc2)NC(=O)[C@H](Cc2cccc3ccccc23)NC1=O` [TGFb1_021] ({CH2CO}-F[1Nal]VVNV[4Pal]DE[Gly(NCH2CH2Ph)]V[1Nal]YHK([CO-Piperazinyl(4-CH2COOH)])CG-NH2; thioether N-16): on recombinant human TGF-β1, the inhibition at 62 pM is 10.2%, the inhibition at 0.000185 µM was determined as 26.9%, the inhibition at 0.00056 µM turned out to be 58.9% and the inhibition at 0.0017 µM was 87.8%. Moreover, at recombinant human TGF-β1, the inhibition at 0.005 µM amounted to 97.1% and the inhibition at 0.015 µM was 98.8%.
With `CC(C)[C@@H]1NC(=O)CN(CCc2ccccc2)C(=O)[C@H](CCC(=O)O)NC(=O)[C@H](CC(=O)O)NC(=O)[C@H](Cc2ccncc2)NC(=O)[C@H](C(C)C)NC(=O)[C@H](CC(N)=O)NC(=O)[C@H](CCCCNC(=O)N(C)C[C@H](O)[C@@H](O)[C@H](O)[C@H](O)CO)NC(=O)[C@H](C(C)C)NC(=O)[C@H](Cc2cccc3ccccc23)NC(=O)[C@H](Cc2ccccc2)NC(=O)CSC[C@@H](C(=O)NCC(N)=O)NC(=O)[C@H](CCC(=O)O)NC(=O)[C@H](Cc2c[nH]cn2)NC(=O)[C@H](Cc2ccc(O)cc2)NC(=O)[C@H](Cc2cccc3ccccc23)NC1=O` [TGFb1_029] ({CH2CO}-F[1Nal]VK([CO-Meglumine])NV[4Pal]DE[Gly(NCH2CH2Ph)]V[1Nal]YHECG-NH2; thioether N-16), at recombinant human TGF-β1, the inhibition at 62 pM turned out to be 12%, the inhibition at 0.000185 µM worked out at 16.9%, the inhibition at 0.00056 µM turned out to be 32.4% and the inhibition at 0.0017 µM came out at 63.7%. Further, on recombinant human TGF-β1, the inhibition at 0.005 µM stood at 85.8% and the inhibition at 0.015 µM amounted to 96.8%.
Consider `CC(C)[C@@H]1NC(=O)CN(CCc2ccccc2)C(=O)[C@H](CC(=O)O)NC(=O)[C@H](CC(=O)O)NC(=O)[C@H](Cc2ccncc2)NC(=O)[C@H](C(C)C)NC(=O)[C@H](CC(N)=O)NC(=O)[C@H](CCCCNC(=O)N2CCN(CC(=O)O)CC2)NC(=O)[C@H](C(C)C)NC(=O)[C@H](Cc2cccc3ccccc23)NC(=O)[C@H](Cc2ccccc2)NC(=O)CSC[C@@H](C(=O)NCC(N)=O)NC(=O)[C@H](C(C)C)NC(=O)[C@H](Cc2c[nH]cn2)NC(=O)[C@H](Cc2ccc(O)cc2)NC(=O)[C@H](Cc2cccc3ccccc23)NC1=O` [TGFb1_010] ({CH2CO}-F[1Nal]VK([CO-Piperazinyl(4-CH2COOH)])NV[4Pal]DD[Gly(NCH2CH2Ph)]V[1Nal]YHVCG-NH2; thioether N-16), for which, on recombinant human TGF-β1, the inhibition at 75 pM was found to be 2%, the inhibition at 0.00075 µM came out at 63.8%, the inhibition at 0.0075 µM turned out to be 97.9% and the inhibition at 0.075 µM is 99.9%.
The matching figures for `CC(C)[C@@H]1NC(=O)CN(CCc2ccccc2)C(=O)[C@H](CCCCNC(=O)N2CCN(CC(=O)O)CC2)NC(=O)[C@H](CC(=O)O)NC(=O)[C@H](Cc2ccncc2)NC(=O)[C@H](C(C)C)NC(=O)[C@H](CC(N)=O)NC(=O)[C@H](C(C)C)NC(=O)[C@H](C(C)C)NC(=O)[C@H](Cc2c[nH]c3ncccc23)NC(=O)[C@H](Cc2ccccc2)NC(=O)CSC[C@@H](C(=O)NCC(N)=O)NC(=O)[C@H](C(C)C)NC(=O)[C@H](Cc2c[nH]cn2)NC(=O)[C@H](Cc2ccc(O)cc2)NC(=O)[C@H](Cc2cccc3ccccc23)NC1=O` [TGFb1_017] ({CH2CO}-F[Trp(7-aza)]VVNV[4Pal]DK([CO-Piperazinyl(4-CH2COOH)])[Gly(NCH2CH2Ph)]V[1Nal]YHVCG-NH2; thioether N-16): 21.7%, 60.2%, 97.2% and 100%.
Regarding `CC(C)[C@@H]1NC(=O)CN(CCc2ccccc2)C(=O)[C@H](CC(=O)O)NC(=O)[C@H](CC(=O)O)NC(=O)[C@H](Cc2ccncc2)NC(=O)[C@H](C(C)C)NC(=O)[C@H](CC(N)=O)NC(=O)[C@H](CCCCNC(=O)N(C)C[C@H](O)[C@@H](O)[C@H](O)[C@H](O)CO)NC(=O)[C@H](C(C)C)NC(=O)[C@H](Cc2cccc3ccccc23)NC(=O)[C@H](Cc2ccccc2)NC(=O)CSC[C@@H](C(=O)NCC(N)=O)NC(=O)[C@H](CCC(=O)O)NC(=O)[C@H](Cc2c[nH]cn2)NC(=O)[C@H](Cc2ccc(O)cc2)NC(=O)[C@H](Cc2cccc3ccccc23)NC1=O` [TGFb1_028] ({CH2CO}-F[1Nal]VK([CO-Meglumine])NV[4Pal]DD[Gly(NCH2CH2Ph)]V[1Nal]YHECG-NH2; thioether N-16), on recombinant human TGF-β1, the inhibition at 62 pM was determined as 0.94%, the inhibition at 0.000185 µM came out at 6.17%, the inhibition at 0.00056 µM was found to be 20.4% and the inhibition at 0.0017 µM stood at 47.6%. In addition, at recombinant human TGF-β1, the inhibition at 0.005 µM stood at 73.9% and the inhibition at 0.015 µM worked out at 91.7%.
With `CC(C)[C@@H]1NC(=O)CN(CCc2ccccc2)C(=O)[C@H](CC(=O)O)NC(=O)[C@H](CC(=O)O)NC(=O)[C@H](Cc2ccc(O)cc2)NC(=O)[C@H](C(C)C)NC(=O)[C@H](CC(N)=O)NC(=O)[C@H](C(C)C)NC(=O)[C@H](C(C)C)NC(=O)[C@H](Cc2c[nH]c3ncccc23)NC(=O)[C@H](Cc2ccccc2)NC(=O)CSC[C@@H](C(=O)NCC(N)=O)NC(=O)[C@H](C(C)C)NC(=O)[C@H](Cc2c[nH]cn2)NC(=O)[C@H](Cc2ccc(O)cc2)NC(=O)[C@H](Cc2cccc3ccccc23)NC1=O` [TGFb1_005] ({CH2CO}-F[Trp(7-aza)]VVNVYDD[Gly(NCH2CH2Ph)]V[1Nal]YHVCG-NH2; thioether N-16), on recombinant human TGF-β1, the inhibition at 75 pM stood at 0.4%, the inhibition at 0.00075 µM was determined as 47%, the inhibition at 0.0075 µM stood at 90.8% and the inhibition at 0.075 µM came to 98.9%.
In the case of `CC(C)[C@@H]1NC(=O)CN(CCc2ccccc2)C(=O)[C@H](CC(=O)O)NC(=O)[C@H](CC(=O)O)NC(=O)[C@H](Cc2ccncc2)NC(=O)[C@H](C(C)C)NC(=O)[C@H](CC(N)=O)NC(=O)[C@H](C(C)C)NC(=O)[C@H](C(C)C)NC(=O)[C@H](Cc2c[nH]c3ncccc23)NC(=O)[C@H](Cc2ccccc2)NC(=O)CSC[C@@H](C(=O)NCC(N)=O)NC(=O)[C@H](C(C)C)NC(=O)[C@H](Cc2c[nH]cn2)NC(=O)[C@H](Cc2ccc(O)cc2)NC(=O)[C@H](Cc2cccc3ccccc23)NC1=O` [TGFb1_008] ({CH2CO}-F[Trp(7-aza)]VVNV[4Pal]DD[Gly(NCH2CH2Ph)]V[1Nal]YHVCG-NH2; thioether N-16), at recombinant human TGF-β1, the inhibition at 75 pM came out at 3.8%, the inhibition at 0.00075 µM was found to be 56.8%, the inhibition at 0.0075 µM is 94.6% and the inhibition at 0.075 µM amounted to 98.4%.
As for `CC(C)[C@@H]1NC(=O)CN(CCc2ccccc2)C(=O)[C@H](CC(=O)O)NC(=O)[C@H](CC(=O)O)NC(=O)[C@H](Cc2ccncc2)NC(=O)[C@H](C(C)C)NC(=O)[C@H](CC(N)=O)NC(=O)[C@H](C(C)C)NC(=O)[C@H](C(C)C)NC(=O)[C@H](Cc2cccc3ccccc23)NC(=O)[C@H](Cc2ccccc2)NC(=O)CSC[C@@H](C(=O)NCC(N)=O)NC(=O)[C@H](CCCCNC(=O)N(C)C[C@H](O)[C@@H](O)[C@H](O)[C@H](O)CO)NC(=O)[C@H](Cc2c[nH]cn2)NC(=O)[C@H](Cc2ccc(O)cc2)NC(=O)[C@H](Cc2cccc3ccccc23)NC1=O` [TGFb1_016] ({CH2CO}-F[1Nal]VVNV[4Pal]DD[Gly(NCH2CH2Ph)]V[1Nal]YHK([CO-Meglumine])CG-NH2; thioether N-16), at recombinant human TGF-β1, the inhibition at 75 pM stood at 6.1%, the inhibition at 0.00075 µM was found to be 61%, the inhibition at 0.0075 µM stood at 97.6% and the inhibition at 0.075 µM was 100%.

B1: TGFb1_006 (peptide)
peptide: {CH2CO}-F[1Nal]VVNV[4Pal]DD[Gly(NCH2CH2Ph)]V[1Nal]YHVCG
modifications: thioether N-16; not fully specified (C-terminus)
notes: cyclic peptide; C-terminal G is a linker
B1: in assay [1], the “SBE reporter % inhibition, peptide 0.075 nM” value stood at 2.8%; the “SBE reporter % inhibition, peptide 0.75 nM” value came to 69.3%; the “SBE reporter % inhibition, peptide 7.5 nM” value amounted to 97.1%; the “SBE reporter % inhibition, peptide 75.0 nM” value is 99.7%.
